# Test results published in the METLIN SMRT retention time set (Domingo-Almenara et al. 2019).
# Assay: gradient 5% acetonitrile 3 min, to 50% in 2 min, to 85% in 15 min, held 3 min, 100 µL/min
# Settings: column: Zorbax Extend-C18 2.1 x 50 mm; eluents: water / acetonitrile, 0.1% formic acid
# Procedure, shortened: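 Standards, all pure, were combined into mixtures of ~100 molecules and run at 100 μL/min on a Zorbax Extend-C18 column (2.1 × 50 mm, 1.8 μm) with water and acetonitrile, each containing 0.1% formic acid. A coupled quadrupole time-of-flight mass spectrometer operated in positive and negative ionization mode. Retention time values come from computationally picked adduct peaks, each inspected manually.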
row,Compound,RP-LC retention time [s]
1,Cc1ccc(-n2nc3c(N4CCCC(C(=O)NCCCN5CCCC5=O)C4)nnc(C)c3c2C)cc1 (centres undefined),627
2,CCCN1C(=O)CCc2cc(NS(=O)(=O)c3ccc(CC(C)C)cc3)ccc21,1030
3,CCOC(=O)C1=C(CN2CCC(C(=O)OCC)CC2)NC(=O)NC1c1ccc(Cl)cc1 (centres undefined),673
4,Cc1nn(CC(=O)N2CCN(C)CC2)c(=O)c2cc(-c3ccccc3)nn12,626
5,CC(C)NC(=O)c1c2c(cn(-c3ccccc3)c1=O)C(=O)CC(C)(C)C2,878
6,COc1ccc(-c2nc3ncccn3c2Nc2cccc(C)c2)cc1,743
7,O=C(Cn1c(-c2ccc(F)cc2)nc2ccccc21)N1CCOCC1,592
8,Cc1noc(C)c1C1CCCN1C(=O)CCc1ccccc1 (centres undefined),775
9,O=c1n(Cc2ccccc2F)nc2c(S(=O)(=O)N3CCN(c4ccc(F)cc4)CC3)cccn12,969
10,O=C(NCC1CCCO1)c1csc(N2CCN(c3ccc(F)cc3)CC2)n1 (centres undefined),902
11,CCCn1ncc(N2CCC(C(=O)N3CCC(C)CC3)CC2)cc1=O,734
12,CSc1cccc(NC(=O)N2CCC(N3CCN(Cc4ccccc4)C(=O)C3=O)CC2)c1,770
13,O=C(C1=CN(c2ccc3c(c2)OCCO3)c2ccccc2S1(=O)=O)N1CCCCC1,830
14,Cc1sc2ccn(C)c(=O)c2c1C(=O)N1CCN(c2ccccc2)CC1,728
15,Cc1ccc(F)c(NS(=O)(=O)c2cc3n(c2)CCCN(C)C3=O)c1,687
16,CC(NC(=O)C1CCN(Cc2cn(C)c3ccccc23)CC1)c1ccc(F)cc1 (centres undefined),699
17,CC(C)Cn1cc(CCNS(=O)(=O)c2cccc(Cl)c2)c2cccnc21,985
18,CCCNc1cc(N2CCC(CCC(=O)NCc3cccc(Cl)c3)CC2)ncn1,718
19,CCc1noc(NC(C)=O)c1-c1ccc(OC)c(S(=O)(=O)Nc2cc(Cl)ccc2OC)c1,876
20,Nc1nnc(-c2ccc(Br)s2)o1,628
21,Cc1nc2nc(-c3ccccc3)nn2c(C)c1CC(=O)NC(C)C,700
22,O=C(NCCn1cnc2cc(C(=O)N3CCCC3)ccc21)Nc1ccc2c(c1)CCC2,645
23,CCC(C(=O)NC1(c2nc(-c3cccnc3)no2)CCCCC1)c1ccccc1 (centres undefined),1010

row,Compound,RP-LC retention time [s]
1,COc1ccc(CCNC(=O)CN2C(=O)NC3(CCCCC3)C2=O)cc1OC,691
2,Cc1ccc(C(=O)OCCN2C(=O)c3ccccc3C2=O)cc1,775
3,CS(=O)(=O)N1CCC(OC2CCN(C(=O)Nc3ccccc3F)CC2)CC1,703
4,Cc1cc(C)c(S(=O)(=O)N2CCCC2c2nc(-c3ccc(F)cc3)no2)c(C)c1 (centres undefined),1270
5,O=C(NCc1ccc(F)cc1)Nc1cnc2c(c1)CCC2,531
6,O=C(Cn1ccc2c(SCc3ccc(F)cc3)nccc21)NCc1ccc(N2CCOCC2)cc1,706
7,COC1C(=O)N(CC2CC2)C12CCN(S(=O)(=O)Cc1ccccc1)CC2 (centres undefined),819
8,Cc1ccc(CNS(=O)(=O)c2cc(-c3[nH]ncc3C(=O)N3CCCC3)oc2C)cc1,725
9,Cc1nc(C)c(C(=O)NCc2ccc3c(c2)ncn3C(C)C)s1,568
10,O=C(Cn1nc(N2CCSCC2)c2ccccc2c1=O)Nc1cccc(Cl)c1,1010
11,Cc1ccc(N2CCC(NC(=O)Nc3cc(C)cc(C)c3)C2=O)cc1 (centres undefined),931
12,COc1ccc(-n2cc(C(=O)N3CCC(C(N)=O)CC3)nn2)cc1,612
13,Cc1ccn2cc(-c3ccc(NC(=O)Nc4ccc(Cl)cc4)cc3)nc2n1,711
14,Cc1nc(-c2ccccc2)cc2nn(CC(=O)NC3CCCC3)c(=O)n12,865
15,Cc1ccccc1OCC(=O)N1CCN(c2cc(C)n3c(C)nnc3n2)CC1,630
16,CCc1ccc(NC(=O)Cn2nc3c(N4CCSCC4)nccn3c2=O)cc1,888
17,O=C(Cn1cnc2c(-c3ccc(Cl)cc3)csc2c1=O)NC1CCCC1,933
18,CCn1c(C(=O)N2CCN(c3ccccn3)CC2)cc2sccc21,636
19,CCCCNC(=O)C1CCCN(c2nnc(C)c3c(C)n(-c4ccccc4)nc23)C1 (centres undefined),686
20,COc1ccc(CCc2nc(C3CC(=O)N(c4ccc(F)c(Cl)c4)C3)no2)cc1 (centres undefined),1040
21,O=C(NCc1ccc2c(c1)OCO2)c1nn(-c2ccc(Cl)cc2)nc1CO,1010
22,CC(=O)c1cccc(NC(=O)c2noc3c2CCCC3)c1,874
23,Cc1ccccc1Nc1c(-c2cccc(Cl)c2)nc2cnccn12,1000

row,Compound,RP-LC retention time [s]
1,CCn1nccc1-c1cccc(-c2noc(CNS(=O)(=O)c3ccc(Cl)cc3)n2)c1,986
2,CCOc1nccnc1N1CCC(NC(=O)Cc2cccnc2)C1 (centres undefined),534
3,Cc1ccc(Oc2nccnc2N2CCCC(C(=O)NC(C)c3ccc(C)c(C)c3)C2)cc1 (centres undefined),1150
4,CCN1C(=O)COc2ccc(-c3csc(NC(=O)c4ccc(F)cc4)n3)cc21,989
5,Cc1nc(-c2cnccn2)nc2c1CCC(=O)N2Cc1ccccc1F,726
6,CCOCCCNC(=O)[C@@H]1[C@H](c2cc(OC)c(OC)c(OC)c2)c2cc3c(cc2[C@H](O)[C@H]1CO)OCO3,653
7,CCCc1cc(N2CCN(C(=O)c3ccc4c(c3)OCO4)CC2)nc2nncn12,622
8,Cc1cc(C)c(NS(=O)(=O)c2c(C)cc(C)cc2C)c(C)c1,1120
9,Cc1ccc(NC(=O)N2CCC(c3nc(C(=O)N(C)C)c(C)o3)CC2)cc1Cl,799
10,CCCCNC(=O)CCCN1C(=O)CCn2nc(C)cc21,629
11,CCOc1ccc(Nc2c(-c3ccc(SC)cc3)nc3cnccn23)cc1,994
12,CCOc1ccc(NC(=O)C2(C)Oc3cccnc3N(C(C)C)C2=O)cc1 (centres undefined),1000
13,O=C(NCCc1ccc(N2CCCC2)cc1)C(=O)Nc1ccc(OC(F)(F)F)cc1,1090
14,CCOC(=O)c1ccc(NC(=O)C2CCCN(c3nnc(C)c4c(C)n(-c5ccccc5)nc34)C2)cc1 (centres undefined),797
15,CCOC(=O)C1C(=O)NC(SC)=C(C#N)C1c1ccccc1[N+](=O)[O-] (centres undefined),778
16,CN1CCN(C(=O)CCCN2C(=O)CCn3nc(-c4cn(C)c5ccccc45)cc32)CC1,571
17,CCS(=O)(=O)N1CCCC(c2nc(C(C)C)no2)CCNC(=O)CC1 (centres undefined),686
18,Cc1cc(S(=O)(=O)N2CCc3nc(-c4ccccc4)ncc3C2)ccc1F,1090
19,CCN(CC)C(=O)c1cnc2nc(C)ccc2c1Nc1ccc2c(c1)OCCO2,601
20,CN(C)C(=O)c1ccc2c(c1)CCN2C(=O)C1CCC1,700
21,CCN1N=C(C(=O)N2CCOCC2)S(=O)(=O)c2cc(Cl)ccc21,760
22,CCN(CC)C(=O)c1c2c(cn(-c3ccc(F)cc3)c1=O)C(=O)CC(C)(C)C2,759
23,CC(NC(=O)C(=O)NCc1nc(-c2ccccc2)no1)c1ccccc1 (centres undefined),856

row,Compound,RP-LC retention time [s]
1,CCOc1ccccc1NC(=O)NCCCn1c(C(F)(F)F)nc2cccnc21,856
2,COc1ccc(-c2ccnc3nc(-c4cccs4)nn23)c(F)c1,905
3,CCC(=O)N1CCc2cc(C(=O)NC3CCCC3)ccc21,744
4,COc1cc(Nc2nc(-c3nnn(-c4ccc(Br)cc4F)c3C)ns2)cc(OC)c1,1120
5,CNC(=O)[C@@H]1CN(C(=O)c2ccc3c(c2)OCO3)C[C@H]1c1n[nH]c(C)n1,580
6,O=C(Nc1ccnn1Cc1ccco1)C(c1ccccc1)c1ccccc1,926
7,COc1ccccc1CNC(=O)c1nc(N2CCOCC2)c2c(C)cc(C)nc2n1,643
8,O=C(CCc1c[nH]c2ccccc12)N1CCN(C(=O)c2cc(-c3cccnc3)n[nH]2)CC1,814
9,Cn1c(=O)c2c(nc(Cc3ccc(N)cc3)n2C)n(C)c1=O,621
10,CCn1cc(C(=O)Nc2cccc(F)c2)c(S(=O)(=O)N2CCSCC2)n1,845
11,CC(C)NC(=O)C1CCCN(c2nc3ncn(CC(=O)Nc4ccc(F)c(F)c4)c(=O)c3s2)C1 (centres undefined),716
12,CCc1nc2onc(C)c2c(=O)n1CC(=O)NCc1ccc(F)cc1,783
13,CCN(CC)CCNC(=O)c1cc2cc(S(=O)(=O)N(C)C)ccc2n1CC,633
14,CCOCCCNC(=O)N1CCc2cc(-c3ccc(C(=O)N4CCOCC4)cc3)ccc21,608
15,Cc1cc(=O)n(CC(=O)Nc2cc(C)on2)c(N2CCc3ccccc3C2)n1,699
16,COc1ccc(C2CCN(S(=O)(=O)c3cccc(C(F)(F)F)c3)C2)cc1 (centres undefined),1060
17,O=C(Cc1ccc(Cl)cc1)N1CC(n2cnnc2C2CC2)C1,649
18,COc1cccc(C(=O)NC2(C(F)(F)F)C(=O)N(CC3CCCO3)C3=C2C(=O)CC(C)(C)C3)c1 (centres undefined),922
19,CC(=O)N1CCN(c2ccnc3c2c(=O)n(CC(=O)Nc2cc(C)on2)c(=O)n3C)CC1,579
20,O=C(c1ncccn1)N1C[C@@H](COCC2CC2)[C@H](c2ccncc2)C1,654
